Where a SMILES comes first, the peptide text is derived from it. Bridges are numbered along the chain shown (N, C = ends).
What was measured:
rWSN virus (parental) = assay: microbe, parasite or virus in culture; format: cell-based; conditions: unidentified influenza virus, MDCK, 48 h, read-out: Anti-rWSN IC50 (μM), parental
[1] = Cytotoxicity assay in MDCK cells (MTS); format: cell-based; conditions: dog; concentration needed to inhibit 50% growth of MDCK cells in 48 h
Protocol: In a 96-well plate, 1×10^4 MDCK cells were seeded per well and incubated for 24 h at 37° C. The MDCK cells were then incubated with compounds for 48 h at 35° C. The number of metabolically viable cells was determined by the MTS assay (Promega).

WSN virus = assay: microbe, parasite or virus in culture; conditions: unidentified influenza virus, MDCK, 48 h, read-out: IC50 (μM), antiinfluenza
NP WT trimer = NP WT trimer (Influenza A virus, UniProt P15682); format: binding, influenza A virus (WSN)
Chain of NP WT trimer (P15682 whole entry, looked up): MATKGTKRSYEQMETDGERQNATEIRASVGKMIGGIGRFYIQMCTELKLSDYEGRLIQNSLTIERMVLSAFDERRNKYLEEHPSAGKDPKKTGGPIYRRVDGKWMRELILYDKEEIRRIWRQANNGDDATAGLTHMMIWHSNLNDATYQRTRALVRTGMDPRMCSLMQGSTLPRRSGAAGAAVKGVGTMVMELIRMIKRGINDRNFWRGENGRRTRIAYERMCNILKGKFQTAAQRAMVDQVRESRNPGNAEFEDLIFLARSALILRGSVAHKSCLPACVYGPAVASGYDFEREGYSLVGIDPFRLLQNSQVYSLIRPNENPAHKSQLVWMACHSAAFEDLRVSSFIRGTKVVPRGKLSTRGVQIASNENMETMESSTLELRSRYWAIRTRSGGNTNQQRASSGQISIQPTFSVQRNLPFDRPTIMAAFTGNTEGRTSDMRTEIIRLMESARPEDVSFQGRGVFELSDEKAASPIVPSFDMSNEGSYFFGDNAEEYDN

[2] = test system: RDRP activity of WSN virus; format: biochemical, Influenza virus A/WSN/33 (H1N1)

Row | Molecule | IC50 (rWSN virus (parental)) [µM] | CC50 at 48 h [1] [µM] | IC50 (WSN virus) [µM] | effect of compounds on NP WT trimer (AUC) (NP WT trimer) | effect of peptides on WT NP trimerization (AUC) (NP WT trimer) | inhibition of viral transcription activity [2]
1 | O=C(NCCCN1CCOCC1)c1csc(Nc2ccc(Cl)c(Cl)c2)n1 [compound 1] | 1.7 | 35.6 | 2.7 | able to disrupt NP trimerization and induce formation of NP monomers |  | 
2 | Cc1cccc(CSc2nc(=O)n(CCCO)c3c2CCC3)c1 [compound 4] |  | > 100 | 39.7 | able to disrupt NP trimerization and induce formation of NP monomers |  | 
3 | CC(C)[C@@H]1NC(=O)[C@H](CO)NC(=O)[C@H](Cc2ccccc2)NC(=O)[C@H]([C@@H](C)O)NC(=O)[C@@H](N)CSSC[C@@H](C(=O)O)NC(=O)[C@H](CC(N)=O)NC(=O)[C@H](CCCNC(=N)N)NC(=O)[C@H](CCC(N)=O)NC1=O [peptide 2] |  | > 2000 |  |  | the effect was substantially enhanced | reduce the viral transcription activity
4 | CCCCCCCCC(=O)NCC(=O)Nc1cccc(F)c1 [compound 2] |  | > 100 | 37.5 | able to disrupt NP trimerization and induce formation of NP monomers |  | 
5 | Cc1onc(-c2ccccc2)c1C(=O)N1CCN(c2ccc([N+](=O)[O-])cc2Cl)CC1 [nucleozin, reference compound] |  |  |  | caused aggregation of the NP trimer |  | 
6 | TFDSVQRN [peptide 1] |  |  |  |  | disrupted WT NP trimerization only slightly | 
7 | CCCCCC(=O)NCC(=O)Nc1cc(Cl)ccc1Cl [compound 3] |  | > 100 | 118 | able to disrupt NP trimerization and induce formation of NP monomers |  | 
8 | CC(C)C[C@@H]1NC(=O)[C@H](CC(N)=O)NC(=O)[C@H](CCCNC(=N)N)NC(=O)[C@H](CCC(N)=O)NC(=O)[C@H](C(C)C)NC(=O)[C@H](CO)NC(=O)[C@H](Cc2ccccc2)NC(=O)[C@H]([C@@H](C)O)NC(=O)[C@@H]2CCCN2C(=O)[C@H](CCC(N)=O)NC(=O)[C@@H](N)CSSC[C@@H](C(=O)O)NC1=O [peptide 3] (H-CQPTFSVQRNLC-OH; disulfide 1-12) |  | > 2000 |  |  | showed a slightly greater effect | reduce the viral transcription activity
